Results reported in patent publication US20060069132A1, “Azolecarboxamide herbicides” (priority 2004, published 2006).

Columns and labels:
[1] = test system: barnyardgrass; assay: Test A pre-/postemergence herbicide test; format: in vivo, Echinochloa crus-galli
Procedure, shortened: (§1)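 Sandy loam soil given preemergence directed spray; plants at 2 to 10 cm, one- to two-leaf stage, sprayed to runoff postemergence, compounds in non-phytotoxic solvent with surfactant. Injury rated visually versus untreated controls after about ten greenhouse days, 0 (no effect) to 100 (complete control); dash means not tested.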

[2] = test system: large crabgrass; assay: Test A pre-/postemergence herbicide test; format: in vivo, Digitaria sanguinalis
Procedure, shortened: as §1

[3] = test system: giant foxtail; assay: Test A pre-/postemergence herbicide test; format: in vivo, Setaria faberi
Procedure, shortened: as §1

[4] = test system: morningglory; assay: Test A pre-/postemergence herbicide test; format: in vivo, Ipomoea spp.
Procedure, shortened: as §1

[5] = test system: redroot pigweed; assay: Test A pre-/postemergence herbicide test; format: in vivo, Amaranthus retroflexus
Procedure, shortened: as §1

[6] = test system: velvetleaf; assay: Test A pre-/postemergence herbicide test; format: in vivo, Abutilon theophrasti
Procedure, shortened: as §1

[7] = test system: barnyardgrass; assay: Test B pre-/postemergence herbicide test; format: in vivo, Echinochloa crus-galli; settings: for Barnyardgrass plant response rating: postemergence, visual rating, scale 0 (no effect) to 100 (complete control)
Procedure, shortened: (§2)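 Test chemicals in a non-phytotoxic solvent mixture with surfactant were applied preemergence to seeded species and postemergence to plants 2-18 cm tall (1- to 4-leaf stage); rice and barnyardgrass were also tested in a flooded paddy at the 2-leaf stage. Visual rating versus controls after 13-15 days in greenhouse, scale 0 (no effect) to 100 (complete control).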

[8] = test system: Surinam grass; assay: Test B pre-/postemergence herbicide test; format: in vivo, Urochloa decumbens; settings: for Surinam Grass plant response rating: postemergence, visual rating, scale 0 (no effect) to 100 (complete control)
Procedure, shortened: (§3)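 Greenhouse pot assay with simultaneous preemergence (treated seed) and postemergence (2–18 cm seedlings) applications of surfactant-containing, non-phytotoxic solvent formulations. Response scored visually 13–15 days later on a 0–100 scale, 100 meaning complete control.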

[9] = test system: cocklebur; assay: Test B pre-/postemergence herbicide test; format: in vivo, Xanthium strumarium; settings: for Cocklebur plant response rating: postemergence, visual rating, scale 0 (no effect) to 100 (complete control)
Procedure, shortened: as §2

[10] = test system: corn; assay: Test B pre-/postemergence herbicide test; format: in vivo, Zea mays; settings: for Corn plant response rating: postemergence, visual rating, scale 0 (no effect) to 100 (complete control)
Procedure, shortened: as §3

[11] = test system: large crabgrass; assay: Test B pre-/postemergence herbicide test; format: in vivo, Digitaria sanguinalis; settings: for Crabgrass, Large plant response rating: postemergence, visual rating, scale 0 (no effect) to 100 (complete control)
Procedure, shortened: as §3

[12] = test system: giant foxtail; assay: Test B pre-/postemergence herbicide test; format: in vivo, Setaria faberi; settings: for Foxtail, Giant plant response rating: postemergence, visual rating, scale 0 (no effect) to 100 (complete control)
Procedure, shortened: as §3

[13] = test system: lambsquarters; assay: Test B pre-/postemergence herbicide test; format: in vivo, Chenopodium album; settings: for Lambsquarters plant response rating: postemergence, visual rating, scale 0 (no effect) to 100 (complete control)
Procedure, shortened: as §3

[14] = test system: morningglory; assay: Test B pre-/postemergence herbicide test; format: in vivo, Ipomoea coccinea; settings: for Morningglory plant response rating: postemergence, visual rating, scale 0 (no effect) to 100 (complete control)
Procedure, shortened: as §2

[15] = test system: pigweed; assay: Test B pre-/postemergence herbicide test; format: in vivo, Amaranthus retroflexus; settings: for Pigweed plant response rating: postemergence, visual rating, scale 0 (no effect) to 100 (complete control)
Procedure, shortened: as §3

[16] = test system: velvetleaf; assay: Test B pre-/postemergence herbicide test; format: in vivo, Abutilon theophrasti; settings: for Velvetleaf plant response rating: postemergence, visual rating, scale 0 (no effect) to 100 (complete control)
Procedure, shortened: as §3

[17] = test system: blackgrass; assay: Test B postemergence herbicide test; format: in vivo, Alopecurus myosuroides; settings: postemergence, visual rating, scale 0 (no effect) to 100 (complete control)
Procedure, shortened: (§4)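 Paddy species grown to the 2-leaf stage under flooding; blackgrass sprayed postemergence at 2–18 cm (1- to 4-leaf stage). Plants kept in a greenhouse for 13 to 15 days, then visually rated against controls on 0 (no effect) to 100 (complete control).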

[18] = test system: wheat; assay: Test B postemergence herbicide test; format: in vivo, Triticum aestivum; set-up: key to Wheat plant response rating: 0 = no effect, 100 = complete control; settings: postemergence, visual rating, scale 0 (no effect) to 100 (complete control)
Procedure, shortened: (§5)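 Each value is a visual 0–100 response rating taken against controls 13 to 15 days after treatment in the greenhouse. Plants received formulated chemical postemergence at the 1- to 4-leaf stage or, in flooded paddy, at the 2-leaf stage.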

[19] = test system: wild oat; assay: Test B postemergence herbicide test; format: in vivo, Avena fatua; settings: postemergence, visual rating, scale 0 (no effect) to 100 (complete control)
Procedure, shortened: as §5

[20] = test system: rice; assay: Test B flooded paddy test; format: in vivo, Oryza sativa; settings: 1000 g ai/ha, visual rating, scale 0 to 100 (0 no effect, 100 complete control), 13 to 15 days
Procedure, shortened: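 Greenhouse test; postemergence application to plants at 1–4 leaves (2–18 cm); paddy species at 2 leaves; evaluated visually vs controls at 13–15 days; scale 0–100 (100 = complete control).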

[21] = test system: small flower umbrella sedge; assay: Test B flooded paddy test; format: in vivo, Cyperus difformis; settings: 1000 g ai/ha, visual rating, scale 0 to 100 (0 no effect, 100 complete control), 13 to 15 days
Procedure, shortened: as §4

[22] = test system: ducksalad; assay: Test B flooded paddy test; format: in vivo, Heteranthera limosa; settings: 1000 g ai/ha, visual rating, scale 0 to 100 (0 no effect, 100 complete control), 13 to 15 days
Procedure, shortened: as §4

[23] = test system: barnyardgrass; assay: Test B flooded paddy test; format: in vivo, Echinochloa crus-galli; settings: 1000 g ai/ha, visual rating, scale 0 to 100 (0 no effect, 100 complete control), 13 to 15 days
Procedure, shortened: as §4

[24] = Postemergence, 500 g ai/ha, 0 to 100 scale, 0 no effect, 100 complete control
[25] = Postemergence, 2000 g ai/ha, 0 to 100 scale, 0 no effect, 100 complete control
[26] = Preemergence, 2000 g ai/ha, visual rating, 0 to 100 scale (0 no effect, 100 complete control)
[27] = preemergence, 500 g ai/ha, visual injury, 0 to 100 scale (0 no effect, 100 complete control)
[28] = 125 g ai/ha, 0 = no effect, 100 = complete control, preemergence
[29] = 500 g ai/ha, visual rating 0-100, 0 no effect, 100 complete control, preemergence

CC(=O)c1cccc(NC(=O)c2cn(C(C)C)nc2C)c1 [Compound 179]
40: Barnyardgrass plant response rating [1, 26]
0: Barnyardgrass plant response rating [1, 27] | Crabgrass, Large plant response rating [2, 27] | Foxtail, Giant plant response rating [3, 24] | Foxtail, Giant plant response rating [3, 27] | Morningglory plant response rating [4, 27] | Pigweed plant response rating [5, 24] | Pigweed plant response rating [5, 27] | Velvetleaf plant response rating [6, 24] | Velvetleaf plant response rating [6, 26] | Velvetleaf plant response rating [6, 27] | Barnyardgrass plant response rating (0 to 100 scale) [7, 28] | Plant response rating, Barnyardgrass [7, 29] | Barnyardgrass plant response rating ([7]; 125 g ai/ha) | Barnyardgrass plant response rating ([7]; 500 g ai/ha) | Surinam Grass plant response rating (0 to 100 scale) [8, 28] | Plant response rating, Surinam Grass [8, 29] | Surinam Grass plant response rating ([8]; 125 g ai/ha) | Surinam Grass plant response rating ([8]; 500 g ai/ha) | Cocklebur plant response rating (0 to 100 scale) [9, 28] | Plant response rating, Cocklebur [9, 29] | Cocklebur plant response rating ([9]; 125 g ai/ha) | Cocklebur plant response rating ([9]; 500 g ai/ha) | Corn plant response rating (0 to 100 scale) [10, 28] | Plant response rating, Corn [10, 29] | Corn plant response rating ([10]; 125 g ai/ha) | Corn plant response rating ([10]; 500 g ai/ha) | Crabgrass, Large plant response rating (0 to 100 scale) [11, 28] | Plant response rating, Crabgrass, Large [11, 29] | Crabgrass, Large plant response rating ([11]; 125 g ai/ha) | Crabgrass, Large plant response rating ([11]; 500 g ai/ha) | Foxtail, Giant plant response rating (0 to 100 scale) [12, 28] | Plant response rating, Foxtail, Giant [12, 29] | Foxtail, Giant plant response rating ([12]; 125 g ai/ha) | Foxtail, Giant plant response rating ([12]; 500 g ai/ha) | Lambsquarters plant response rating (0 to 100 scale) [13, 28] | Plant response rating, Lambsquarters [13, 29] | Lambsquarters plant response rating ([13]; 125 g ai/ha) | Lambsquarters plant response rating ([13]; 500 g ai/ha) | Morningglory plant response rating (0 to 100 scale) [14, 28] | Plant response rating, Morningglory [14, 29] | Morningglory plant response rating ([14]; 125 g ai/ha) | Morningglory plant response rating ([14]; 500 g ai/ha) | Pigweed plant response rating (0 to 100 scale) [15, 28] | Plant response rating, Pigweed [15, 29] | Pigweed plant response rating ([15]; 125 g ai/ha) | Pigweed plant response rating ([15]; 500 g ai/ha) | Velvetleaf plant response rating (0 to 100 scale) [16, 28] | Plant response rating, Velvetleaf [16, 29] | Velvetleaf plant response rating ([16]; 125 g ai/ha) | Velvetleaf plant response rating ([16]; 500 g ai/ha) | Blackgrass plant response rating ([17]; 125 g ai/ha) | Blackgrass plant response rating ([17]; 500 g ai/ha) | Wheat plant response rating ([18]; 125 g ai/ha) | Wheat plant response rating ([18]; 500 g ai/ha) | Oat, Wild plant response rating ([19]; 125 g ai/ha) | Oat, Wild plant response rating ([19]; 500 g ai/ha) | Rice plant response rating [20] | Sedge, Umbrella plant response rating [21] | Ducksalad plant response rating [22] | Barnyardgrass plant response rating [23]
10: Plant response rating, Barnyardgrass [1, 25] | Crabgrass, Large plant response rating [2, 24] | Plant response rating, Crabgrass, Large [2, 25] | Plant response rating, Foxtail, Giant [3, 25] | Foxtail, Giant plant response rating [3, 26] | Morningglory plant response rating [4, 24] | Plant response rating, Pigweed [5, 25]
5: Barnyardgrass plant response rating [1, 24] | Morningglory plant response rating [4, 26] | Plant response rating, Velvetleaf [6, 25]
35: Pigweed plant response rating [5, 26]
30: Plant response rating, Morningglory [4, 25]
50: Crabgrass, Large plant response rating [2, 26]
